Columns and labels:
VIH-1 [1] = assay: Residual infectivity of treated HIV-1 on primary cultures of activated human lymphocytes (reverse transcriptase activity in supernatants, 28 days); format: cell-based; conditions: for log reduction at 10 µg/mL: Human immunodeficiency virus 1, Lymphocyte, light or radiation study
Description: (§1) Cette étude a été réalisée en 2 étapes : • traitements du virus VIH-1 (ou HIV-1) par le 5-méthoxypsoralène (5-MOP) et les UVA. • étude de l'infectivité résiduelle des échantillons traités à l'aide des tests sur cellules MT4 et sur lymphocytes activés.
(§2) Le virus a été traité par 10 µg/ml de 5-MOP, puis exposé aux UVA (1 à 2 Joules/cm²) de la façon suivante: • 4 ml de virus VIH-1 ont été traités avec 40 µl de 5-MOP à 1 mg/ml puis exposés aux UVA (intensité de 1,5 mW/cm²) pendant 17 minutes (échantillon PUV 10), • l'irradiation aux UVA a été faite avec la lampe PUVA 200 WALDMANN en déposant les flacons contenant le virus sur un lit de glace, afin d'éviter au maximum l'échauffement.
(§3) Les témoins pour cette expérience ont été les suivants : • le virus VIH-1 utilisé, non traité (échantillon PUV 1), • 4 ml du virus utilisé, traité uniquement par 40 µl de DMSO, afin de vérifier une éventuelle toxicité due au DMSO (échantillon PUV 2), • le virus utilisé, traité avec 10 µg/ml de 5-MOP, mais sans irradiation UVA (échantillon PUV 6), • le virus utilisé, traité uniquement par irradiation UVA pendant 17 minutes à 1,5 mW/cm² (échantillon PUV 5), • le virus utilisé, sans traitement, gardé à la température de l'expérience, pendant toute la durée du traitement, afin de vérifier la perte d'infectivité due aux conditions de la manipulation (échantillon PUV 9).
• a - Sur cellules MT4 : Des dilutions successives de chaque échantillon ont été testées en duplicata. 100 µl de chaque dilution ont été mis en contact 1 heure à 37°C avec 3.10⁵ cellules MT4 par puits de plaque COSTAR 24 puits. Les cellules ont été centrifugées afin d'éliminer le produit éventuellement toxique, puis resuspendues dans 1 ml du milieu de culture. Aux jours 3 et 6, 750 µl de surnageant ont été ôtés, remplacés par du milieu de culture frais et la concentration cellulaire ajustée à 3.10⁵ cellules par millilitre. Au jour 10, l'effet cytopathogène et la mortalité cellulaire ont été évalués par observation au microscope après coloration au bleu Trypan. Des dosages de l'activité transcriptase inverse ont été réalisés à partir des surnageants de culture conservés à chaque passage (jours 3, 6 et 10). • b - Sur lymphocytes humains activés : Un culot de 3.10⁶ lymphocytes préalablement stimulés à la PHA a été incubé avec 1 ml de chaque échantillon (de 10⁻¹ à 10⁻⁵ pour chaque échantillon, sauf pour l'échantillon PUV10 testé également non dilué) pendant 1 heure à 37°C. Puis les cellules ont été centrifugées et resuspendues à 10⁶ cellules par millilitre dans du milieu complet. Tous les 3 ou 4 jours, les cellules ont été comptées, réensemencées à 10⁶ cellules/ml et les surnageants conservés à -80°C. […]

VIH-1 [2] = assay: Residual infectivity of treated HIV-1 on MT4 cells (cytopathic effect, p25 antigen, reverse transcriptase activity); format: cell-based; conditions: Human immunodeficiency virus 1, light or radiation study
Description: as §1, §2
as §3, with “9). […]” for “9).”

COc1c2ccoc2cc2oc(=O)ccc12 [5-MOP, 5-méthoxypsoralène]
réduction du pouvoir infectieux du virus (VIH-1 [1]; 5-MOP seul, no UVA (control treatment), overall conclusion): sans effet
titre (VIH-1 [1]; 5-MOP à 10 µg/ml et UVA (sample PUV10), activated human lymphocytes (PBL)): 100 UI/ml
log reduction at 10 µg/mL (VIH-1 [1]; 5-MOP à 10 µg/ml et UVA (sample PUV10, tested undiluted), activated human lymphocytes (PBL), read-out: inactivation virale): 3
log reduction at 10 µg/mL (VIH-1 [1]; 5-MOP à 10 µg/ml et UVA, overall conclusion, read-out: réduction du pouvoir infectieux du virus): ~3
log reduction at 10 µg/mL (VIH-1 [2]; 5-MOP seul à 10 µg/ml, no UVA (sample PUV6), versus control PUV9, read-out: perte d'infectivité): 0.5
log reduction at 10 µg/mL (VIH-1 [2]; 5-MOP à 10 µg/ml et UVA (sample PUV10), versus control PUV9, read-out: réduction du titre infectieux): 2.5

Source: EP0604248A1, “Use of 5-methoxypsoralen for the treatment of AIDS” (Goupil, Jean-Jacques, priority 1992, dated 1994)
